The test system of assay [1] is apomorphine-induced vomiting. In words: block of apomorphine-induced vomiting in dogs (antiemetic activity). Format: in vivo, beagle dogs. As to conditions: Canis lupus familiaris, sc, read-out: ED50 (dose which protects 50% of the animals from emesis). The procedure:
The method used is described previously by P. A. J. Janssen and C. J. E. Niemegeers in: Arzneim. -Forsch. (Drug Res), 9, 765-767 (1959).
The compounds listed below were administered subcutaneously to beagle dogs at different doses and the animals were challenged 1 hour thereafter with a standard dose of 0.31 mg/kg (subcutaneous) of apomorphine.
The tables below give the ED50 values of a number of the compounds under consideration. As used herein, the ED50 value represents the dose which protects 50% of the animals from emesis.

Assay [2] has as its system apomorphine-induced phenomena: agitation and stereotypic chewing. In words: The apomorphine test in rats (anti-apomorphine activity). In kind it is in vivo, male Wistar rats. As to conditions: Rattus norvegicus, sc, read-out: LED (lowest effective dose), anti-apomorphine activity in rats. The protocol: The compounds of formula (I) are potent psychotropic agents and as such they can be used in the treatment of metal disorders such as, for example, personality and psycho-affective disorders and schizophrenia. The psychotropic activity of the subject compounds (I) is strongly evidenced by the experimental data obtained in the apomorphine test in rats, a test which is indicative for central nervous system depressant activity. The test was carried out following the procedure described hereafter and the experimental data which were obtained are summarized in table V wherein the compound numbers refer to the corresponding structures in the Tables I to IV.
The apomorphine test in rats
The experimental animals used in this test were adult male Wistar rats (weight 240 ± 10 g.). After an overnight fast, the animals were treated subcutaneously (1ml/100 g) with an aqueous solution of the compound under investigation and put into isolated observation cages.

The mark [3] stands for this setting: beagle dogs, challenged 1 hour thereafter with 0.31 mg/kg s.c. apomorphine.
Where [4] appears, read: 30 min before 1.25 mg/kg i.v. apomorphine hydrochloride, observed over 1 hour, Fisher exact probability test.

Molecules are shown by their SMILES. Where two headings read alike, the source gives them in different places.

The ED50 is the dose that gives a 50% effect, or the effect in half of the subjects. On to `O=C(NCCN1CCC2(CC1)C(=O)NCN2c1ccccc1)c1ccccc1`, for which, in assay [1] (1 h), the ED50 was 0.1 mg/kg. Still for that read-out and setting: as for `COc1ccc(C(=O)NCCN2CCC3(CC2)C(=O)NCN3c2ccccc2)cc1`, the figure is 0.5 mg/kg.

Regarding `O=C(NCCN1CCC2(CC1)C(=O)NCN2c1ccc(F)cc1)c1ccc(F)cc1[N+](=O)[O-]`, the ED50 in assay [1] (1 h) came to 0.03 mg/kg. As for `O=C(NCCN1CCC2(CC1)C(=O)NCN2c1ccc(F)cc1)c1ccccc1[N+](=O)[O-]`, the ED50 in assay [1] (1 h) worked out at 0.12 mg/kg. Same read-out and setting: as for `O=C(NCCN1CCC2(CC1)C(=O)NCN2c1ccccc1)c1cccs1`, the figure is 0.45 mg/kg; as for `O=C(NCCN1CCC2(CC1)C(=O)NCN2c1ccccc1)c1cccc(Cl)c1`, 0.63 mg/kg.

On to `O=C(NCCN1CCC2(CC1)C(=O)NCN2c1ccccc1)c1ccc(Cl)cc1`, for which the ED50 in assay [1] (1 h) amounted to 0.8 mg/kg. On the same count and under the same terms, to `O=C(NCCN1CCC2(CC1)C(=O)NCN2c1ccccc1)c1ccc(F)cc1[N+](=O)[O-]` belongs 0.25 mg/kg. For `O=C(NCCN1CCC(n2c(=O)[nH]c3ccccc32)CC1)c1ccccc1`, the ED50 in assay [1] (setting [3]) was determined as 0.2 mg/kg. For `O=C(NCCN1CCC(n2c(=O)[nH]c3ccccc32)CC1)c1ccc(F)cc1`, the ED50 in assay [1] (setting [3]) stood at 0.12 mg/kg.

Turning to `Cc1ccccc1C(=O)NCCN1CCC(n2c(=O)[nH]c3ccccc32)CC1`, the median effective dose (ED50) in assay [1] (setting [3]) came to 0.25 mg/kg. The same measure, in the same setting: as for `O=C(NCCN1CCC(n2c(=O)[nH]c3ccccc32)CC1)c1ccc(F)cc1[N+](=O)[O-]`, the figure is 0.5 mg/kg; as for `Nc1ccccc1C(=O)NCCN1CCC(n2c(=O)[nH]c3cc(Cl)ccc32)CC1`, 0.45 mg/kg; as for `O=C(NCCN1CCC(n2c(=O)[nH]c3cc(Cl)ccc32)CC1)c1ccc(F)cc1[N+](=O)[O-]`, 0.25 mg/kg. Still for that read-out and setting: as for `N#CCCn1c(=O)n(C2CCN(CCNC(=O)c3ccc(F)cc3)CC2)c2ccccc21`, the figure is 0.5 mg/kg; as for `O=C(NCCN1CC=C(n2c(=O)[nH]c3ccccc32)CC1)c1ccc(F)cc1`, 0.25 mg/kg. For `O=C(NCCN1CCC2(CC1)C(=O)NCN2c1ccccc1)c1ccc(F)cc1` [Compound 2], the minimal effective dose in assay [2] was found to be 5 mg/kg. Further, the ED50 in assay [1] (1 h) was 0.06 mg/kg. The like results for `O=C(NCCN1CCC2(CC1)C(=O)NCN2c1ccccc1)c1ccccc1Cl` [Compound 3] were, in that order, 0.31 mg/kg and 0.06 mg/kg. The like results for `O=C(NCCN1CCC2(CC1)C(=O)NCN2c1ccccc1)c1ccccc1Br` [Compound 4] were, in that order, 2.5 mg/kg and 0.25 mg/kg. In the same order, the values of `Cc1ccccc1C(=O)NCCN1CCC2(CC1)C(=O)NCN2c1ccccc1` [Compound 6] are 2.5 mg/kg and 0.1 mg/kg. As for `Cl.Nc1cc(F)ccc1C(=O)NCCN1CCC2(CC1)C(=O)NCN2c1ccccc1.O` [Compound 7, 2-amino-4-fluoro-N-[2-(4-oxo-1-phenyl-1,3,8-triazaspiro[4,5]dec-8-yl)ethyl]benzamide hydrochloride hydrate], the minimal effective dose in assay [2] stood at 2.5 mg/kg. For the same molecule, the median effective dose (ED50) in assay [1] (1 h) was 0.004 mg/kg. `O=C(NCCN1CCC2(CC1)C(=O)NCN2c1ccc(F)cc1)c1ccc(F)cc1` [Compound 8]: the minimal effective dose in assay [2] is 10 mg/kg. Moreover, the ED50 in assay [1] (1 h) turned out to be 0.015 mg/kg. With `O=C(NCCN1CCC2(CC1)C(=O)NCN2c1ccc(F)cc1)c1ccc(F)cc1Cl` [Compound 9], in assay [2], the minimal effective dose is 0.63 mg/kg. The ED50 in assay [1] (1 h) was 0.002 mg/kg. The like results for `O=C(NCCN1CCC2(CC1)C(=O)NCN2c1ccc(F)cc1)c1ccccc1O` [Compound 11] were, in that order, 10 mg/kg and 0.2 mg/kg.

Regarding `O=C(NCCN1CCC2(CC1)C(=O)NCN2c1ccc(F)cc1)c1ccccc1Cl` [Compound 14], the minimal effective dose in assay [2] was determined as 0.63 mg/kg. Further, the ED50 in assay [1] (1 h) turned out to be 0.004 mg/kg.

For the molecule `O=C(NCCN1CCC2(CC1)C(=O)NCN2c1ccccc1)c1ccccc1F` [Compound 16], the minimal effective dose in assay [2] is 1.25 mg/kg. In addition, the 50% effective dose (ED50) in assay [1] (1 h) was 0.25 mg/kg. The like results for `Cl.Nc1cc(F)ccc1C(=O)NCCN1CCC2(CC1)C(=O)NCN2c1ccc(F)cc1.O` [Compound 20, 2-amino-4-fluoro-N-{2-[1-(4-fluorophenyl)-4-oxo-1,3,8-triazaspiro[4,5]dec-8-yl]ethyl}benzamide hydrochloride hydrate] were, in that order, 5 mg/kg and 0.002 mg/kg. The like results for `O=C(NCCN1CCC2(CC1)C(=O)NCN2c1ccccc1)c1ccc(F)cc1Cl` [Compound 21] were, in that order, 2.5 mg/kg and 0.015 mg/kg. The like results for `Nc1ccccc1C(=O)NCCN1CCC2(CC1)C(=O)NCN2c1ccc(F)cc1` [Compound 23] were, in that order, 2.5 mg/kg and 0.008 mg/kg.

With `Cn1cccc1C(=O)NCCN1CCC2(CC1)C(=O)NCN2c1ccc(F)cc1` [Compound 24], the minimal effective dose in assay [2] amounted to 10 mg/kg. In addition, the ED50 in assay [1] (1 h) stood at 0.25 mg/kg.

On to `CC(=O)Nc1cc(F)ccc1C(=O)NCCN1CCC2(CC1)C(=O)NCN2c1ccc(F)cc1` [Compound 25], for which, in assay [2], the minimal effective dose turned out to be 5 mg/kg. In addition, the ED50 in assay [1] (1 h) was found to be 0.07 mg/kg.

On to `O=C(NCCN1CCC(n2c(=O)[nH]c3ccccc32)CC1)c1ccccc1F` [Compound 27], for which the minimal effective dose in assay [2] (setting [4]) was found to be 5 mg/kg. In addition, the ED50 in assay [1] (setting [3]) was 0.5 mg/kg. For the molecule `O=C(NCCN1CCC(n2c(=O)[nH]c3cc(Cl)ccc32)CC1)c1ccc(F)cc1` [Compound 31], the minimal effective dose in assay [2] turned out to be 5 mg/kg. Besides, the ED50 in assay [1] (1 h) turned out to be 0.08 mg/kg. For the molecule `O=C(NCCN1CCC(n2c(=O)[nH]c3cc(Cl)ccc32)CC1)c1ccc(F)cc1Cl` [Compound 32], the minimal effective dose in assay [2] (setting [4]) was 1.25 mg/kg. The ED50 in assay [1] (setting [3]) came to 0.03 mg/kg. As to `Nc1cc(F)ccc1C(=O)NCCN1CCC(n2c(=O)[nH]c3ccccc32)CC1` [Compound 33], the minimal effective dose in assay [2] (setting [4]) is 5 mg/kg. In addition, in assay [1] (setting [3]), the ED50 is 0.03 mg/kg.

On to `O=C(NCCN1CCC(n2c(=O)[nH]c3ccccc32)CC1)c1ccccc1Cl` [Compound 34], for which the minimal effective dose in assay [2] (setting [4]) turned out to be 5 mg/kg. The ED50 in assay [1] (setting [3]) was 1.5 mg/kg.

Take `Nc1ccccc1C(=O)NCCN1CCC(n2c(=O)[nH]c3ccccc32)CC1` [Compound 36, 2-amino-N-{2-[4-(2,3-dihydro-2-oxo-1H-benzimidazol-1-yl)-1-piperidinyl]ethyl}benzamide hemihydrate]: the ED50 in assay [1] (setting [3]) stood at 0.1 mg/kg. In the case of `CC(=O)Nc1cc(F)ccc1C(=O)NCCN1CCC(n2c(=O)[nH]c3ccccc32)CC1` [Compound 37], the minimal effective dose in assay [2] (setting [4]) was found to be 10 mg/kg. The ED50 in assay [1] (setting [3]) stood at 0.04 mg/kg. In the same order, the values of `CC(=O)Nc1cc(F)ccc1C(=O)NCCN1CCC(n2c(=O)[nH]c3cc(Cl)ccc32)CC1` [Compound 38] are 10 mg/kg and 0.06 mg/kg. Regarding `Nc1cc(F)ccc1C(=O)NCCN1CCC(O)(c2ccc(Cl)cc2)CC1` [Compound 40], in assay [2], the minimal effective dose worked out at 5 mg/kg. Moreover, in assay [1] (1 h), the ED50 was 0.7 mg/kg.

The values are drawn from patent publication US4031226A, “N-[(1-piperidinyl)alkyl]arylcarboxamide derivatives” (Janssen Pharmaceutica N.V., priority 1976, dated 1977).
